Biological target: T1, HCV NS3 helicase NS3h_1b(con1) (Hepatitis C virus genotype 1b, UniProt Q9WMX2)
T1 construct: truncated C-terminally His-tagged NS3 proteins lacking the N-terminal protease, called NS3h; His-tag (C); made in house
Experiment: MBHA screen of NCI mechanistic set library at 20 μM (percent inhibition, compound interference)
Type: biochemical
Details: compounds at 20 μM; for Inh. (%) (Inhibition): calculated from Equation 1
Summary of the method: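 Molecular beacon-based DNA unwinding assay; compounds screened at 20 μM in triplicate, with DMSO-only negative and 500 nM dT20 positive controls. Fluorescence (ex 643/em 670 nm) was read before and 30 min after adding ATP to 1 mM. Percent inhibition came from the change relative to DMSO controls; interference from pre-ATP fluorescence versus DMSO controls.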

[1] = MBHA with DNA substrate, assay interference calculated with Equation 2
[2] = assay interference calculated with Equation 2 (fluorescence vs DMSO-only controls before ATP)

T1 sequence (Q9WMX2 1192-1657): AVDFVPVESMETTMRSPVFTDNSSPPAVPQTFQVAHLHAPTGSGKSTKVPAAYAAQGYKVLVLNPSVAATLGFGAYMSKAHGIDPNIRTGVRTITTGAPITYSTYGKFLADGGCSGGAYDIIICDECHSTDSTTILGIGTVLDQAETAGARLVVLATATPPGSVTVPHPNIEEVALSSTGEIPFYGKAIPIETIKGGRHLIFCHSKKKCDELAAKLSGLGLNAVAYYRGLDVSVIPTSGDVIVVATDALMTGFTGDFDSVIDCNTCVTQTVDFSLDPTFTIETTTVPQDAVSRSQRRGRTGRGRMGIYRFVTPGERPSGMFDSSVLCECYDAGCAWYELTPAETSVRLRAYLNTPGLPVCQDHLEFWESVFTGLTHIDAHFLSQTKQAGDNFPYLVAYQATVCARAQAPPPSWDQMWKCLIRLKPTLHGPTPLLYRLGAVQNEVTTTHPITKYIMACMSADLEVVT

SMILES | Int.* (Ratio) (Interference) [1] | Inh. (%) (Inhibition) (MBHA with DNA substrate) | Inh. (%) (Inhibition) (MBHA with a DNA substrate) | Int.* (Ratio) (Interference) [2]
C[C@@H]1CC[C@@]2(OC1)O[C@H]1CC3[C@@H]4CC=C5C[C@@H](O[C@@H]6O[C@H](CO)[C@@H](O[C@@H]7O[C@@H](C)[C@H](O[C@@H]8O[C@@H](C)[C@H](O)[C@@H](O)[C@@H]8O)[C@@H](O)[C@H]7O)[C@H](O)[C@H]6O[C@@H]6O[C@@H](C)C(O)[C@@H](O)[C@H]6O)CC[C@]5(C)[C@H]4CC[C@]3(C)[C@H]1[C@@H]2C (stereo partly shown) [Compound 306864] | 0.86 Ratio | 1.3% | – | –
COC(=O)NC1C(C)OC(OC2C/C=C(/C)C3C=CC4C(OC5CC(OC6CC(O)C(OC7CC(O)C(OC)C(C)O7)C(C)O6)C(O)C(C)O5)C(C)CC(C)C4C3(C)/C(O)=C3\C(=O)OC4(CC(C)C(CO)=CC4/C=C\2C)C3=O)CC1(C)[N+](=O)[O-] (stereo not shown) [Compound 363182] | 1.08 Ratio | 22.2% | – | –
COc1cc([C@H]2c3cc4c(cc3C[C@@H]3COC(=O)[C@H]32)OCO4)cc(OC)c1OC [Compound 403148] | 0.94 Ratio | 16.8% | – | –
Cl.Nc1nccc2c1ncn2C1C=C(CO)C(O)C1O (stereo not shown) [Compound 617989] | 0.96 Ratio | −12.9% | – | –
C=C(NC(=O)C(=C)NC(=O)c1csc(C2=N[C@@H]3c4csc(n4)C4NC(=O)c5csc(n5)C([C@](C)(O)[C@@H](C)O)NC(=O)[C@H]5CSC(=N5)/C(=C/C)NC(=O)C(C(C)O)NC(=O)c5csc(n5)C3(CC2)NC(=O)[C@H](C)NC(=O)C(=C)NC(=O)C(=C)NC(=O)C(C(C)C)N[C@@H]2C=Cc3c([C@@H](C)O)cc(nc3[C@H]2O)C(=O)OC4C)n1)C(N)=O (stereo partly shown) [Compound 285116] | 0.90 Ratio | −0.3% | – | –
CC(C)C(C)C=CC(C)C1CCC2C3=CC=C4CC(O)CCC4(C)C3CCC21C (stereo not shown) [Compound 62791] | 0.93 Ratio | −9.1% | – | –
C=C(CN(C)C)C(=O)c1ccccc1Cl.Cl [Compound 382007] | 0.85 Ratio | 22.9% | – | –
CN(C)[C@H]1CCC2[C@@H]3CCC4C[C@@H](NC(=O)NC(Cc5ccccc5)c5nccs5)CC[C@]4(C)C3CC[C@@]21C (stereo partly shown) [Compound 647889] | 0.89 Ratio | 1.6% | – | –
C=C(C)C(=O)OC1CCC2(C)C(CCC3C2CCC2(C)C(c4ccc(=O)oc4)CC4OC432)C1 (stereo not shown) [Compound 267712] | – | – | −22.8% | 1.09 Ratio
CN=c1sc2c(n1C)C(=O)c1ccccc1C2=O [Compound 659501] | – | – | −6.6% | 1.06 Ratio
Nc1ccccc1N [Compound 5354] | – | – | 10.6% | 0.97 Ratio
Cc1cc(N(CCCl)CCCl)ccc1/C=N/NC(=O)Cc1cc(=O)oc2cc(O)ccc12 [Compound 79688] | – | – | 7.5% | 0.97 Ratio
COC1/C=C/OC2(C)Oc3c(C)c(O)c4c(c3C2=O)C(=O)C=C(NC(=O)/C(C)=C\C=C\C(C)C(OC=O)C(C)C(O)C(C)C(OC(C)=O)C1C)C4=O (stereo not shown) [Compound 239375] | 0.90 Ratio | −18.3% | – | –
COC(=O)NC1C(C)OC(OC2C/C=C(\C)C3C=C[C@H]4C(OC5CC(OC6CCC(OC7CC(O)C(OC8CCC(O)C(C)O8)C(C)O7)C(C)O6)C(OC(C)=O)C(C)O5)C(C)CC(C)[C@@H]4[C@@]3(C)C([O-])=C3C(=O)OC4(CC(C=O)=CC(O)[C@@H]4/C=C\2C)C3=O)CC1(C)[N+](=O)[O-].[Na+] (stereo partly shown) [Compound 333856] | – | – | −5.2% | 0.95 Ratio
CCC1CN2CCc3cc(OC)c(OC)cc3C2CC1CC1c2cc(OC)c(OC)cc2CCN1C(=O)C(Cc1c[nH]c2ccccc12)NC(=O)OC(C)(C)C (stereo not shown) [Compound 109350] | 0.92 Ratio | −9.3% | – | –
OCCOc1ccc(-c2cc(-c3ccccn3)nc(-c3ccccn3)c2)cc1 [Compound 640499] | – | – | −25.9% | 0.91 Ratio
CCN(CC)CCOc1ccccc1/C=C/c1noc2ccccc12.Cl [Compound 601101] | 0.97 Ratio | −7.8% | – | –
CC(C)c1oc(=O)cc2c1[C@@H](O)[C@H]1OC(=O)[C@@]3(C)[C@@H](O)[C@H]4O[C@H]4[C@@]2(C)[C@@H]13 [Compound 211500] | – | – | 10.6% | 0.89 Ratio
COC1CC(OC2CCC3(C=O)C4CCC5(C)C(C6=CC(=O)OC6)CCC5(O)C4CCC3(O)C2)OC(C)C1OC1OC(CO)C(O)C(O)C1O (stereo not shown) [Compound 4320] | 0.95 Ratio | −12.6% | – | –
CC1CCCC(C(=O)/C(=C/c2cccc(Cl)c2)C(=O)C(=O)O)C1 (stereo not shown) [Compound 636084] | 1.01 Ratio | −8.2% | – | –
CCCC/C=C/C=C/C=C/CCCCCCCC(=O)OCC(COC(=O)CCCCCCC/C=C/C1C=CC(CCCC)C(C(=O)O)C1C(=O)O)OC(=O)CCCCCCC/C=C/C=C/C=C/CCCC.OCCNCO (stereo not shown) [Compound 643834] | 0.88 Ratio | −1.3% | – | –
O=C1NC(=S)NC(=O)C1C(=O)Nc1ccccc1 [Compound 336628] | 0.90 Ratio | 17.4% | – | –

SMILES | Int.* (Ratio) (Interference) [1] | Inh. (%) (Inhibition) (MBHA with DNA substrate) | Inh. (%) (Inhibition) (MBHA with a DNA substrate) | Int.* (Ratio) (Interference) [2]
CN1c2c(nc(N)[nH]c2=O)NCC1CCNc1ccc(C(=O)N[C@@H](CCC(=O)[O-])C(=O)[O-])cc1.[Na+].[Na+] (stereo partly shown) [Compound 139490] | 0.95 Ratio | −13.8% | – | –
Cc1c(N)nc([C@H](CC(N)=O)NC[C@H](N)C(N)=O)nc1C(=O)N[C@H](C(=O)N[C@H](C)[C@@H](O)[C@H](C)C(=O)N[C@H](C(=O)NCCc1nc(-c2nc(C(=O)NCCC[S+](C)C)cs2)cs1)[C@@H](C)O)[C@@H](OC1OC(CO)C(O)C(O)C1OC1OC(CO)C(O)C(OC(N)=O)C1O)c1cnc[nH]1 (stereo partly shown) [Compound 125066] | 0.79 Ratio | 15.8% | – | –
O=C1C(=O)c2ccccc2C(O)=C1CC=C(Cl)Cl [Compound 126771] | 1.12 Ratio | −9.7% | – | –
CC[C@](C)(O)C(=O)O[C@H]1C(=O)O[C@@H]2C[C@H]3C(C)=CC(=O)[C@@H](O)[C@]3(C)[C@H]3C4(O)OC[C@]32[C@@H]1[C@@H](C)[C@H]4O [Compound 132791] | – | – | 8.2% | 0.98 Ratio
Clc1ccc(-c2c(C3=NCCCN3)nnn2-c2ccc(Cl)cc2)cc1 [Compound 645033] | 0.96 Ratio | −18.4% | – | –
CCn1c(O)c(C=Nc2ccccc2)s/c1=N/Nc1ncc(CC(=O)Nc2ccccc2C)s1 [Compound 658350] | 1.00 Ratio | −18.3% | – | –
C/C=C(\CCC1NCCc2c1[nH]c1ccccc21)[Si](C)(C)C (stereo not shown) [Compound 619165] | 0.89 Ratio | 13.6% | – | –
O=[N+]([O-])c1ccccc1S(=O)(=O)c1ccccc1[N+](=O)[O-] [Compound 633001] | 0.89 Ratio | 23.2% | – | –
O=C(O)/C=C\C(=O)O.[N-]=[N+]=Nc1ccc2c(c1)Sc1ccccc1N2CCCCN1CCN(Cc2ccc(C(=O)c3ccccc3)cc2)CC1 [Compound 676963] | 0.46 Ratio | −1.7% | – | –
CC1=C[C@H]2O[C@@H]3[C@H](O)[C@@H](O)[C@@](C)([C@@]2(CO)CC1)[C@]31CO1 [Compound 269142] | – | – | −19.6% | 1.07 Ratio
NC(=O)c1csc(C2OC(CO)C(O)C2O)n1 (stereo not shown) [Compound 286193] | 1.13 Ratio | 1.1% | – | –
COC(=O)c1cc(-c2c[nH]cc2C(=O)OCc2ccccc2)cn1S(=O)(=O)c1ccc(C)cc1 [Compound 679527] | 0.98 Ratio | 1.5% | – | –
Cc1ccc(C2NC(=O)c3ccccc3N2)s1 (stereo not shown) [Compound 175634] | 0.93 Ratio | 1.5% | – | –
[Cl][Hg][c]1ccc2ccccc2c1 [Compound 174163] | 1.00 Ratio | −18.5% | – | –
CCCCCCCCCCCCCCCCOP(=O)([O-])OCC[N+](C)(C)C [Compound 605583] | 0.89 Ratio | −10.9% | – | –
C=Cc1cc(OC)c2c(c1)c(=O)oc1c2cc(OC)c2c(O)ccc(C3OC(C)C(O)C(C)(O)C3O)c21 (stereo not shown) [Compound 354844] | 0.93 Ratio | 32.6% | – | –
COC1=C(N)C(=O)c2nc(-c3nc(C(=O)O)c(C)c(-c4ccc(OC)c(OC)c4O)c3N)ccc2C1=O [Compound 45383] | – | – | −19.1% | 1.05 Ratio
CN(C)c1cccc(/C=C(\C#N)c2ccccc2)c1 [Compound 667251] | – | – | −7.0% | 1.09 Ratio
Cl.Nc1ccc2cc3ccc(N)cc3nc2c1 [Compound 605756] | 0.33 Ratio | 14.1% | – | –
C(=N\NC1=NCCN1)/c1c2ccccc2c(/C=N/NC2=NCCN2)c2ccccc12 [Compound 337766] | 0.65 Ratio | 70.0% | – | –
OC[C@H]1O[C@@H](n2cnc3cncnc32)[C@H](O)[C@@H]1O [Compound 65423] | 1.12 Ratio | 2.0% | – | –
O=C(NC1=C(Cl)C(=O)c2ccccc2C1=O)C(=O)C(C(=O)c1ccc2ccccc2c1)C1OC(=O)c2ccccc21 (stereo not shown) [Compound 641233] | 0.91 Ratio | −13.1% | – | –
